Data on 27 compounds can be found in patent publication US7473788B2, “Analogs of terpene trilactones from Ginkgo biloba and related compounds and uses thereof” (The Trustees of Columbia University in the City of New York, priority 2002, dated 2009).

Read-outs that look alike come from different tables or passages of the source.

Experiment [1] concerns PAFR. The conditions noted are these: literature (Pietri, 2001; Jaracz, 2002); cited from earlier work.
Experiment [2] has as its target T1, PAFR (Cavia porcellus, UniProt P21556). The conditions noted are these: for Ki: Inhibition of [^3H]-WEB 2086 binding, cloned PAFR, Cheng-Prusoff from IC50; for PAFR binding (in words): at the concentrations tested.
Experiment [3] deals with T1, PAFR. Format: binding, PAFR transgenic mice.
The target of experiment [4] is T1, PAFR. As to the kind of experiment: biochemical.
Experiment [5] has as its system PAFR. The experiment in a line: PAFR antagonism in previous or preliminary studies (literature, unpublished results). Particulars: preliminary studies (Suehiro, unpublished results).
The test system of experiment [6] is PAFR. The conditions noted are these: PAF-induced rabbit platelet aggregation (Park, 1996; Hu, 1999; Hu, 2000); cited from earlier work.
Where [7] appears, read: Ki, Inhibition of [^3H]-WEB 2086 binding, means of two independent experiments performed in triplicate.
The mark [8] stands for this setting: Inhibition of [^3H]-WEB 2086 binding, means of two independent experiments performed in triplicate, read-out: Ki.

T1 sequence (P21556 whole entry): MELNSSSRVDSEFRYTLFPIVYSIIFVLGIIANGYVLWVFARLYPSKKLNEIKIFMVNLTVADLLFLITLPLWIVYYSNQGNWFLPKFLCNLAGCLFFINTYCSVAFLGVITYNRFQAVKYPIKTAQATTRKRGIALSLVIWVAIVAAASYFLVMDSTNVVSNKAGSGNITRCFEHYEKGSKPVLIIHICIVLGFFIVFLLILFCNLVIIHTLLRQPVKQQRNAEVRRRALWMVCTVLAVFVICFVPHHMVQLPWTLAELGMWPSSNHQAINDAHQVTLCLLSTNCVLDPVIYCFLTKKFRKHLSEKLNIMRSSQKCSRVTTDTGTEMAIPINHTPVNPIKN

With 7-O-(4-methylphenyl)-GB, the “PAFR activity (in words)” value in experiment [1] is on record as “devoid of PAFR activity”.
With “10-O-benzophenone-7-O-dansyl ginkgolide C [Compound 10a]”, in experiment [2], the affinity, expressed as Ki, was 3940 nM. The “times less active than 9a” value in experiment [2] (ratio of Ki) is recorded as “ca. 6”.
On to “10-O-benzoylbenzoic ginkgolide C [Compound 11]”, for which the Ki in experiment [2] worked out at 130 nM.
On to `CC1C(=O)OC2C(O)C34C5OC(=O)C3(OC3OC(=O)C(O)C34C(C(C)(C)C)C5O)C12O` (stereo not drawn) [7-epi-GC (18), 7-Epi-ginkgolide C], for which the Ki in experiment [3] (setting [7]) was 4260 nM.
`CC1C(=O)OC2C(O)C34C5OC(=O)C3(OC3OC(=O)C(O)C34C(C(C)(C)C)C5Cl)C12O` (stereo not drawn) [7α-Cl-GB (22), 7α-Chloro Ginkgolide B]: in experiment [3] (ratio of Ki), the “fold more potent than GC (2)” value was found to be 115 and the “times more potent than GB (1)” value is on record as 8.
In the case of `CC1C(=O)O[C@H]2C(O)C34C5OC(=O)[C@@]3(OC3OC(=O)[C@H](O)C34C(C(C)(C)C)[C@@H]5N=[N+]=[N-])[C@@]12O` (stereo partly drawn) [7α-N3-GB (20), 7α-Azido Ginkgolide B], the Ki in experiment [3] (setting [8]) is 550 nM.
For the compound `CCNC1C(C(C)(C)C)C23C(OC(=O)C2O)OC24C(=O)OC1C32C(O)C1OC(=O)C(C)C14O` (stereo not drawn) [7α-NHEt-GB (26), 7α-N-Ethylamino Ginkgolide B], the Ki in experiment [3] (setting [8]) was 1620 nM; in experiment [3] (setting [7]) it was 550 to 1620 nM.
On the same counts, the results for `CNC1C(C(C)(C)C)C23C(OC(=O)C2O)OC24C(=O)OC1C32C(O)C1OC(=O)C(C)C14O` (stereo not drawn) [7α-NHMe-GB (25), 7α-N-Methylamino Ginkgolide B] are 610 nM and 550 to 1620 nM.
With `CC(=O)OC1C(C(C)(C)C)C23C(OC(=O)C2O)OC24C(=O)OC1C32C(O)C1OC(=O)C(C)C14O` (stereo not drawn) [7α-OAc-GB (17), 7α-O-Acetate Ginkgolide B], in experiment [3] (setting [8]), the Ki was determined as 7840 nM.
In experiment [3] (setting [7]), `CC1C(=O)OC2C(O)C34C5OC(=O)C3(OC3OC(=O)C(O)C34C(C(C)(C)C)C5OC(=O)Cc3ccccc3)C12O` (stereo not drawn) [7α-OCOCH2Ph-GB (19), 7α-O-Phenylacetate Ginkgolide B] returned an inhibition constant (Ki) of 2400 nM.
Compound `CC1C(=O)OC2C(O)C34C5OC(=O)C3(OC3OC(=O)C(OCc6ccccc6)C34C(C(C)(C)C)C5F)C12O` (stereo not drawn) [10-OBn-7α-F-GB (30), 10-O-Benzyl-7α-fluoro Ginkgolide B] returned a Ki in experiment [3] (setting [7]) of 100 nM. Also, in experiment [3] (ratio of Ki), the “fold improved affinity compared to non-benzylated derivative” value is on record as 10.
Regarding `CC1C(=O)OC2C(O)C34C5CC(C(C)(C)C)C36C(OC(=O)C6OCc3ccccc3)OC4(C(=O)O5)C12O` (stereo not shown) [10-OBn-GB (28), 10-O-Benzyl Ginkgolide B], in experiment [3] (setting [8]), the inhibition constant Ki was 120 nM.
Same read-out and setting: as for `CC1C(=O)OC2C(O)C34C5OC(=O)C3(OC3OC(=O)C(OCc6ccccc6)C34C(C(C)(C)C)C5O)C12O` (stereo not shown) [10-OBn-GC (29), 10-O-Benzyl Ginkgolide C], the figure is 1670 nM.
Take `CC1C(=O)OC2C(O)C34C5OC(=O)C3(OC3OC(=O)C(OCc6ccccc6)C34C(C(C)(C)C)C5O)C12O` (stereo not drawn) [10-OBn-epi-GC (31), 10-O-Benzyl-7-epi-ginkgolide C]: in experiment [3] (setting [8]), the inhibition constant (Ki) turned out to be 600 nM. Moreover, the “fold improved affinity compared to non-benzylated derivative” value in experiment [3] (ratio of Ki) amounted to 7.
Consider `CC(C)(C)[C@]1(O)CC2OC(=O)CC23C(=O)OC2OC(=O)[C@H](O)C231` (stereo partly shown) [BB (6), bilobalide], for which, in experiment [2], the Ki was above 50000 nM and the “PAFR binding (in words)” value was “not active in concentrations up to 100 μM”.
In experiment [4], `CC1C(=O)OC2C(O)C34C5CC(C(C)(C)C)C36C(OC(=O)C6OCc3ccc(C6(C(F)(F)F)N=N6)cc3)OC4(C(=O)O5)C12O` (stereo not shown) [Compound 8b, 10-O-(trifluoromethyl-3H-diazirine)benzyl ginkgolide B] returned an inhibition constant Ki of 150 nM.
The same measure, in the same setting: as for `CC1C(=O)OC2C(O)C34C5CC(C(C)(C)C)C36C(OC(=O)C6OCc3c(F)c(F)c(N=[N+]=[N-])c(F)c3F)OC4(C(=O)O5)C12O` (stereo not shown) [Compound 8c, 10-O-tetrafluorobenzylazide ginkgolide B], the figure is 90 nM; as for `CC1C(=O)OC2C(O)C34C5OC(=O)C3(OC3OC(=O)C(OCc6c(F)c(F)c(N=[N+]=[N-])c(F)c6F)C34C(C(C)(C)C)C5O)C12O` (stereo not shown) [Compound 9c, 10-O-tetrafluorobenzylazide ginkgolide C], 790 nM.
In the case of `CC1C(=O)OC2C(OS(=O)(=O)c3cccc4c(N(C)C)cccc34)C34C5OC(=O)C3(OC3OC(=O)C(OCc6ccc(C(=O)c7ccccc7)cc6)C34C(C(C)(C)C)C5O)C12O` (stereo not shown) [Compound 10b, 10-O-benzophenone-1-O-dansyl ginkgolide C], the “times more potent than 10a” value in experiment [2] was “ca. four”. Besides, the Ki in experiment [4] is 960 nM.
`CC1C(=O)OC2C(O)C34C5OC(=O)C3(OC3OC(=O)C(O)C34C(C(C)(C)C)C5F)C12O` (stereo not shown) [Compound 13, 7-Fluoro ginkgolide B]: in experiment [2], the “fold more potent / improved affinity to PAFR relative to GC (3)” value is listed as “ca. 10”. Also, the “fold more potent as a PAFR antagonist compared to GC (2)” value in experiment [5] is 15.
`COC1C(=O)OC2OC34C(=O)OC5CC(C(C)(C)C)C21C53C(O)C1OC(=O)C(C)C14O` (stereo not shown) [Compound 14, 10-O-Methyl ginkgolide B]: affinity in experiment [4] was put at a Ki of 3160 nM.
`C[C@@H]1C(=O)O[C@H]2C[C@@]34[C@H]5C[C@@H](C(C)(C)C)[C@]36[C@@H](OC(=O)[C@@H]6O)O[C@@]4(C(=O)O5)[C@]21O` [GA (1), ginkgolide A] returned a Ki in experiment [2] of 1460 nM.
For the compound `CC1C(=O)OC2C(O)C34C5CC(C(C)(C)C)C36C(OC(=O)C6O)OC4(C(=O)O5)C12O` (stereo not shown) [GB (2), ginkgolide B, reference compound], the “fold more potent than GC (2)” value in experiment [3] (ratio of Ki) is listed as “ca. 25”. The inhibition constant (Ki) in experiment [3] (read-out: Ki) was determined as 880 nM; in experiment [4], 560 nM. Also, the concentration for half-maximal inhibition (IC50) in experiment [6] is around 200 nM.
In experiment [4], `CC1C(=O)OC2C(O)C34C5OC(=O)C3(OC3OC(=O)C(O)C34C(C(C)(C)C)C5O)C12O` (stereo not shown) [GC (3), ginkgolide C, reference compound] showed a Ki of 12600 nM.
For `C[C@@H]1C(=O)O[C@@H]2[C@H]1[C@@]13OC4OC(=O)[C@H](O)C45[C@H](C(C)(C)C)[C@@H](O)C(OC1=O)[C@]53[C@H]2O` (stereo partly shown) [GM (5), ginkgolide M], in experiment [2], the Ki was above 50000 nM and the “PAFR binding (in words)” value is reported as “devoid of PAFR binding”.
On to Neoginkgolide C [Compound 23], for which the Ki in experiment [3] (setting [8]) is above 40000 nM.
For the compound ginkgolide J [GJ (4)], the affinity in experiment [2], expressed as Ki, was 9900 nM.
